Tests used:
Type in all cases: physicochemical
[1] = Degree of order S in nematic broad-range mixture (dichroic ratio, homogeneous edge orientation, ground PVA cells); settings: room temperature
Procedure: The degree of order S was determined using the conventional equation [formula] the measurement being carried out in commercial measuring cells with a homogeneous edge orientation (ground PVA). The dichroic ratio CR was determined by measuring the extinctions E" (measurement with light polarized parallel to the preferred direction of the nematic phase) and E^.perp. (measurement with light polarized perpendicular to the preferred direction of the nematic phase) and using the relationship CR=E"/E^.perp. the dye concentration being chosen so that E" was from 1 to 2. The measurements were carried out in a Beckmann Acta CIII spectrophotometer.

[2] = Solubility L in liquid crystal mixture (saturated solution, comparison of extinction); settings: room temperature, percentages by weight unless stated otherwise
[3] = Light stability: high-speed exposure of the measuring cell in a Suntest from Hanau; settings: 25° C., at the stated λmax
Procedure: The light stability was determined by high-speed exposure of the measuring cell in a Suntest from Hanau, at 25° C. In this procedure, the decrease in E" was measured. […] E" was determined at the stated λmax values.

[4] = ZLI 1840 (Merck), 1 week stirring

| Compound | Degree of order S ([1]; ZLI 1957/5 (Merck)) | Solubility L ([2]; ZLI 1957/5 (Merck)) | Degree of order S ([1]; ZLI 1840 (Merck)) | Solubility L [2, 4] | E80% " (exposure time after which E"o has decreased to 80%) [3] | Eo " (initial extinction) [3] |
| --- | --- | --- | --- | --- | --- | --- |
| CCCCCC1CCC(c2ccc(COc3cc(C)c(N=Nc4ccc(N=Nc5ccc(N=Nc6c(C)cc(OCc7ccc(C8CCC(CCCCC)CC8)cc7)cc6C)cc5)cc4)c(C)c3)cc2)CC1 (centres unmarked) [Example 17] | 0.81 | 0.2% |  |  |  |  |
| Cc1cc(O)ccc1N=Nc1ccc(N=Nc2ccc(N=Nc3ccc(OCc4ccccc4)cc3C)cc2)cc1 [Example 1, 4-(2-methyl-4-hydroxyphenylazo)-4'-(2-methyl-4-benzyloxyphenylazo)-azobenzene] |  |  | 0.75 | 0.9% |  |  |
| Cc1cc(OCc2cc(C(C)(C)C)cc(C(C)(C)C)c2)ccc1N=Nc1ccc(N=Nc2ccc(N=Nc3ccc(OCc4cc(C(C)(C)C)cc(C(C)(C)C)c4)cc3C)cc2)cc1 [Example 11] | 0.76 | 0.7% |  |  |  |  |
| CCCCCC1CCC(c2ccc(COc3ccc(N=Nc4ccc(N=Nc5ccc(N=Nc6ccc(OCc7ccc(C8CCC(CCCCC)CC8)cc7)cc6C)cc5)cc4)c(C)c3)cc2)CC1 (centres unmarked) [Example 9] |  |  | 0.81 | 0.8% | 140 h | 1.51 |
| CCCCC1CCC(c2ccc(COc3ccc(N=Nc4ccc(N=Nc5ccc(N=Nc6ccc(OCc7ccc(C8CCC(CCCC)CC8)cc7)cc6C)cc5)cc4)c(C)c3)cc2)CC1 (centres unmarked) [Example 8] |  |  | 0.79 | 0.3% |  |  |
| Cc1cc(OCc2ccc(C(C)(C)C)cc2)ccc1N=Nc1ccc(N=Nc2ccc(N=Nc3ccc(OCc4ccc(C(C)(C)C)cc4)cc3C)cc2)cc1 [Example 4] |  |  | 0.75 | 0.3% |  |  |
| CCCCCc1ccc(COc2ccc(N=Nc3ccc(N=Nc4ccc(N=Nc5ccc(OCc6ccc(CCCCC)cc6)cc5C)cc4)cc3)c(C)c2)cc1 [Example 10] | 0.81 | 1.2% |  |  |  |  |
| CCCCCc1ccc(COc2cc(C)c(N=Nc3ccc(N=Nc4ccc(N=Nc5c(C)cc(OCc6ccc(CCCCC)cc6)cc5C)cc4)cc3)c(C)c2)cc1 [Example 16] | 0.80 | 3% |  |  |  |  |
| Cc1cc(C)c(COc2ccc(N=Nc3ccc(N=Nc4ccc(N=Nc5ccc(OCc6c(C)cc(C)cc6C)cc5C)cc4)cc3)c(C)c2)c(C)c1 [Example 3] |  |  | 0.77 | 1.0% | 110 h | 1.95 |
| CCCCCC1CCC(c2ccc(COc3ccc(N=Nc4ccc(N=Nc5ccc(N=Nc6ccc(O)cc6C)cc5)cc4)c(C)c3)cc2)CC1 (centres unmarked) [Example 5] |  |  | 0.79 | 1.9% | 70 h | 1.23 |

— patent US4724259A, “Azo dyes and liquid-crystalline materials containing these dyes” (BASF Aktiengesellschaft, priority 1983, dated 1988)
